Data on 17 compounds can be found in patent publication US20070207503A1, “DETECTION OF ALCOHOL-ESTERIFIED FATTY ACIDS” (priority 2006, published 2007).

Molecules are shown by their SMILES.

Assay [1] deals with antibodies against 14,15-DHET. Briefly: 14,15-DHET solid phase competitive ELISA, specificity. Type of assay: binding, goat. The following applies: 14,15-DHET ELISA, panel of eicosanoids. How it is done:
(§1) High-binding microplates were coated with protein G-purified IgG suspended in 1 M carbonate, pH 9.01 (10 μg/well; 200 μL/well final volume) and then covered with parafilm. After overnight incubation at room temperature, the welts were gently washed five times with tris buffered saline (TBS), pH 7.5, containing 0.1% tween. Non-specific sites were blocked by the addition of 0.2 mL of 5% (w/v) nonfat dry milk in TBS. After 2 hours of incubation at room temperature, they were washed three times with TBS-tween.
(§2) Standards were serially diluted with TBS (100 μL). The diluted samples (100 μL) were added to the IgG-coated plate. Approximately 50 ng of the DHET HRP conjugates were diluted with HRP-dilution buffer (100 μL) and added to the well. Following incubation for 2 hours to permit competitive binding of the molecules to the antibody, unbound material was removed by thorough washing of the wells with TBS-tween, and 150 μL of a calorimetric substrate for HRP [3,3′,5,5′ tetramethylbenzidine (TMB) and hydrogen peroxide] (Sigma Co.) was added. The plate is then incubated for 30 min, the reaction stopped by addition of 75 μL of 1 N H2SO4, and the absorbance at 450 nm was measured using a microtiter plate reader. Under these assay conditions, the amount of color in a well is inversely proportional to the initial concentration of the sample or the standard ligand.
(§3) The specificity of the 14,15-DHET ELISA was investigated using authentic DHET and a panel of eicosanoids which, based on their structure, might be anticipated to compete with 14,15-DHET for binding to antibodies against 14,15-DHET.
(§4) In a typical standard graph for 14,15-DHET, the r2 value for the fit of the data to an equation describing an inverse logarithmic relationship of free 14,15-DHET to B/Bo was usually higher than 0.96. The detection limits for 14,15- and 11,12-DHET with ELISAwere ˜1 pg.
In general terms: An ELISA detects its analyte on a solid surface through an enzyme-linked reagent.

A short description of assay [2]: Form-specific antibody production / specificity of anti-14,15-, 11,12-, 8,9- and 5,6-DHETs. Type of assay: binding. The following applies: DHET coupled to KLH, goat immunized. The protocol: Synthetic 14,15-, 11,12- or 8,9-DHETs were coupled to KLH using dicyclohexylcarbodiimide (DCC) as previously described (10). The 5,6-DHET with COOH at C1 blocked by NH3 to prevent lactone formation were coupled to KLH using 1-ethyl-3-(3-dimethylaminopropyl)carbodiimide hydrochloride (EDC) according to the manufacturer's instruction (Pierce Biotechnology, Rockford, Ill).
The conjugate was used to immunize a goat and antibody titers were determined by ELISA using the DHET-conjugated bovine serum albumin (BSA).
as §3
(§5) The specificity of the antibody developed against 14,15-DHET was further investigated utilizing slot blot analysis. The 14,15-DHET conjugated BSA, BSA alone and 8,9-DHET conjugated to BSA were blotted onto cellulose membrane. Slot blot analysis was carried out with anti-14,15-DHET. […] Anti-8,9-DHET cross-reacted with both 8,9- and 14,15-DHETs.

The next assay relates to 11,12-DHET IgG. The experiment in a line: 11,12-DHET solid phase competitive ELISA, specificity. Type of assay: binding, goat. The following applies: 11,12-DHET ELISA, authentic DHETs. How it is done:
as §1, §2, §3, §4

In a further assay the test system is Anti-8,9-DHET. Briefly: Cross-reaction of anti-8,9-DHET. The class given is binding, goat. How it is done:
as §5

Assay [3] relates to ethanol-esterified 13-HODE IgG. Briefly: Competitive ELISA with HRP conjugated with ethanol-esterified 13-HODE. The class given is binding, goat. The settings on record: plate coated with the IgG, various concentrations. How it is done: FIG. 6 is a graph showing a competitive ELISA carried out with various concentrations of BSA and 13-HODE ethyl ester conjugated BSA to show cross-reactivity of the antibody to the 13-HODE ethyl ester.
A competitive ELISA using a plate coated with the IgG was carried out with various concentrations of BSA conjugated with ethanol-esterified 13-HODE and HRP conjugated with ethanol-esterilied 13-HODE. A negative control for this ELISA was BSA.
ELISA was carried out with serially diluted BSA or ethyl ester of 13-HODE-conjugated BSA and ˜50 ng/100 μl of the ethyl ester of 13-HODE HRP conjugates as described in Example 1.

Take `CCCCC[C@H](O)/C=C/C=C\C/C=C\C=C\[C@@H](O)CCCC(=O)O` [5(s)15(S)DiHETE]: the “cross-reaction with anti-14,15-DHET” value in assay [1] is “did not cross-react”.

Take `CCCCC/C=C\C/C=C\C/C=C\CC(O)C(O)CCCC(=O)O` (stereo not shown) [5,6-DHET]: the form-specific antibody production result in assay [2] was “failed”. The “cross-reaction with 11,12-DHET IgG” value in the assay with 11,12-DHET IgG is given as “didn't cross-react”. In assay [1], the “cross-reaction with anti-14,15-DHET” value is reported as “did not cross-react”.

As to `CCCCC/C=C\C/C=C\C/C=C\CC1OC1CCCC(=O)O` (stereo not shown) [5,6-EET], in assay [1], the “cross-reaction with anti-14,15-DHET” value is recorded as “did not cross-react”.

In the case of `CCCCC[C@H](O)/C=C/[C@@H]1[C@@H](CC(=O)CCCCC(=O)O)[C@@H](O)C[C@H]1O` [6-keto-PGF1a], the “cross-reaction with anti-14,15-DHET” value in assay [1] is “did not cross-react”.

Consider `CCCCC/C=C\C/C=C\CC(O)C(O)C/C=C\CCCC(=O)O` (stereo not shown) [8,9-DHET], for which, in assay [2], the form-specific antibody production result is “failed”. Further, in the assay with 11,12-DHET IgG, the “cross-reaction with 11,12-DHET IgG” value was “minimal cross-reaction”. In addition, the “cross-reaction with anti-14,15-DHET” value in assay [1] is “minimal cross-reaction”. For the same compound, the “cross-reaction with anti-8,9-DHET” value in the assay on Anti-8,9-DHET is recorded as “cross-reacted”.

In the case of `CCCCC/C=C\C/C=C\CC1OC1C/C=C\CCCC(=O)O` (stereo not shown) [8,9-EET], the “cross-reaction with anti-14,15-DHET” value in assay [1] is recorded as “did not cross-react”.

As for `CCCCC/C=C\CC(O)C(O)C/C=C\C/C=C\CCCC(=O)O` (stereo not shown) [11,12-DHET], the form-specific antibody production entry in assay [2] was “successful”. In assay [1], the “cross-reaction with anti-14,15-DHET” value is “minimal cross-reaction”.

For `CCCCC/C=C\C[C@H]1O[C@H]1C/C=C\C/C=C\CCCC(=O)O` [11,12-EET], in assay [1], the “cross-reaction with anti-14,15-DHET” value is reported as “did not cross-react”.

Consider `CCCCCC(O)C(O)C/C=C\C/C=C\C/C=C\CCCC(=O)O` (stereo not shown) [14,15-DHET], for which the form-specific antibody production entry in assay [2] is on record as “successful”. Besides, in the assay with 11,12-DHET IgG, the “cross-reaction with 11,12-DHET IgG” value was “minimal cross-reaction”. Moreover, the “cross-reaction with anti-8,9-DHET” value with Anti-8,9-DHET is “cross-reacted”.

Regarding `CCCCCC1OC1C/C=C\C/C=C\C/C=C\CCCC(=O)O` (stereo not shown) [14,15-EET], in assay [1], the “cross-reaction with anti-14,15-DHET” value was “did not cross-react”.

As to `CCCCC[C@H](O)/C=C/C=C\C/C=C\C/C=C\CCCC(=O)O` [15(S)HETE], the “cross-reaction with anti-14,15-DHET” value in assay [1] was “did not cross-react”.

Consider `CCCCC/C=C\C/C=C\CCCCCCCC(=O)OCC` [Ethanol-esterified linoleic acid, linoleic acid ethyl ester], for which, in assay [3], the “competition with ethanol-esterified 13-HODE-HRP conjugate for binding to the IgG” value is listed as “competed with the HRP conjugated with ethanol-esterified 13-HODE in a dose-dependent manner”.

In the case of `CCCCC[C@H](O)/C=C/[C@H]1[C@H](O)CC(=O)[C@@H]1C/C=C\CCCC(=O)O` [PGE2], the “cross-reaction with anti-14,15-DHET” value in assay [1] is recorded as “did not cross-react”.

For the compound `CCCCC[C@H](O)/C=C/[C@@H]1[C@@H](C/C=C\CCCC(=O)O)[C@@H](O)C[C@H]1O` [PGF2a], the “cross-reaction with anti-14,15-DHET” value in assay [1] is listed as “did not cross-react”.

`CCCCC[C@H](O)/C=C/[C@H]1OC(O)C[C@H](O)[C@@H]1C/C=C\CCCC(=O)O` (stereo partly shown) [Thromboxane B2]: in assay [1], the “cross-reaction with anti-14,15-DHET” value was “did not cross-react”.

Consider `CCCCC/C=C\C/C=C\C/C=C\C/C=C\CCCC(=O)O` [arachidonic acid], for which the “cross-reaction with anti-14,15-DHET” value in assay [1] was “did not cross-react”.

On to `CCO` [ethanol], for which the “competition with ethanol-esterified 13-HODE-HRP conjugate for binding to the IgG” value in assay [3] is listed as “competed with the HRP conjugated with ethanol-esterified 13-HODE in a dose-dependent manner”.
